Values after ≈ are worked out from the molar mass of the structure shown. Like-named read-outs stand apart in the source and are kept apart here.
Legend:
BT474 cells = experiment: Colony forming assay, BT474; type: cell-based, human; conditions: 7 days treatment at 10 μM
Procedure: (§1) Cells were seeded in a 12‐well plate at 400 cells per well. One hour after the seeding of the cells, compounds (1 mM, 100 μM, 10 μM, 1 μM, 100 nM, 10 nM) or vehicle were added into the wells in triplicate (DMSO vehicle 0.1% and 1%). After 7 days, colonies were stained with 350 μL of crystal violet solution, incubated for 30 min at room temperature, then wells were washed in water and dried. At least the best 3 independent experiments out of 5 independent repeats were used to perform the statistical analysis of the results. Colonies were counted by GelCount Colony Counter (Oxford Optronix Ltd.) using the GelCount 1.1.8.0 software. Assay end points were normalised to 0% (DMSO only) and fitted to a semi‐log plot using at least n = 3 technical replicates (n = 6 for DMSO control and N = 3 independent replicates). The curve fit was performed using GraphPad Prism.
(§2) Compound 5d was screened for the ability to inhibit colony formation in additional human cancer cell lines (Table 3). […] Sub‐micromolar IC50 values in HCC1954 and MDA‐MB‐231 cells were derived by testing over a six‐fold log concentration range. To further extend the profile of activity, the effect of 5d on the colorectal adenocarcinoma cell line SW‐480 was studied, with similarly potent effects on colony viability (Table 3).

MDA-MB-231 cells [1] = experiment: CellTiter-Blue cell viability assay, MDA-MB-231 (24 h); type: cell-based, human; conditions: for GI50 / viability at 10 µM: Homo sapiens, MDA-MB-231, 24 h; for GI50: 24 h incubation time
Procedure: (§3) Human Embryonic Kidney cells (HEK‐293) and human breast cancer cells (MCF‐7, MDA‐MB‐231 and HCC1954) were cultured in complete growth media: […] 1X (Gibco); 10% v/v Fetal Bovine Serum (FBS, Sigma Dorset UK) and L‐glutamine (2 mM, Invitrogen). SW‐480‐WT cells were maintained in selective media made up of Dulbecco's Modified Eagle Medium (Gibco), enriched with […] of Geneticin Selective Antibiotic (G418 Sulfate; Gibco, Thermo Fisher). Cells were incubated at a 5% CO2 atmosphere at 37°C.
(§4) Cells were cultured in 96‐well plates in 90 μL at a seeding density of 1 × 10^6 cells per well. Compound samples were prepared at different concentrations (1 mM, 100 μM, 10 μM, 1 μM, 100 nM, 10 nM) and 10 μL of each concentration was seeded in each well. Two different negative controls were used: DMSO 0.01% and 0.001%. Paclitaxel (30% w/v) was used as a positive control. Cells were treated for 24 h after which 20 μL of CellTitre‐Blue reagent (Promega, Southampton, UK) was added and incubated for 2 h at 37°C in 5% CO2. Fluorescence was measured at 560/590 nm on a Fluorostar Optima plate reader (BMG Labtech, Bucks, UK). Assay end points were normalised to 0% (DMSO only) and fitted to a semilog plot using at least n = 3 technical replicates (n = 6 for DMSO control and paclitaxel control) and N = 3 independent replicates. The curve fit was performed using the GraphPad Prism software and the standard Hill equation.
In view of previous reports on Hsp90 inhibitors and their effects on cancer cell viability (Eachkoti et al. [2014]) and clonogenicity (Kinzel et al. [2016]), new compounds were tested for inhibition of cell viability within both non‐tumourigenic (HEK‐293) and breast cancer cell lines (MDA‐MB‐231) at a fixed concentration of 10 μM. The well‐established CellTiter‐Blue endpoint assay was used to assess cell viability. New compounds were also assessed in a colony forming assay (MCF‐7 breast cancer cell line), used as an efficacy screening to provide an indication of the inhibition of clonogenicity for these small molecules (Table 1).

[2] = system: HCC1954, MCF-7 and HEK-293 cells; experiment: Growth inhibition assay (CellTitre-Blue endpoint), 72 h incubation; type: cell-based, human; conditions: paclitaxel positive control, Figure 3
Procedure: as §4, with “equation. […]” for “equation.”
FIGURE 3 Growth inhibition assay (CellTitre‐Blue endpoint) in human breast cancer cell lines HCC1954 and MCF‐7, and non‐tumorigenic HEK‐293 cells for hit compounds 5d and 5e (72 h incubation). Growth inhibition is represented by the percentage of relative fluorescence units standardised to DMSO control. […]

HCC1954 cells = experiment: Colony forming assay, HCC1954; type: cell-based, human
Procedure: as §3
as §1, with “Prism. […]” for “Prism.”

[3] = Turbidometric solubility (Cyprotex); type: physicochemical; conditions: kinetic from dmso stock
Procedure: (§5) All the selected analogues were calculated to be compliant with the Lipinski rule‐of‐five guidelines for oral bioavailability. Furthermore, in vitro ADME (absorption, distribution, metabolism, excretion) properties were assessed as an outsourced service (Cyprotex Discovery Ltd., UK; part of the EvoTec Group); profiling membrane permeability (Caco‐2 cell model), hERG channel cardiotoxicity, human microsomal stability and turbidometric solubility (Table 4).

MDA-MB-231 cells [4] = experiment: Colony forming assay, MDA-MB-231; type: cell-based, human
Procedure: as §3
as §1, with “Prism. […]” for “Prism.”

SW-480 cells = experiment: Colony forming assay, SW-480; type: cell-based, human
Procedure: as §3
as §1, with “Prism. […]” for “Prism.”

hERG channel = biological target: T1, hERG channel (Homo sapiens, UniProt Q12809); experiment: hERG channel cardiotoxicity assay (Cyprotex)
T1 construct: Cyprotex Discovery Ltd., UK
Procedure: as §5

SKBR3 cells = experiment: Colony forming assay, SKBR3; type: cell-based, human; conditions: 7 days treatment at 10 μM
Procedure: as §1, §2

[5] = CellTiter-Blue, 24 h incubation, 10 μM test compound, standardised to DMSO control
[6] = read-out: Solubility - estimated precipitation range, Calc. mid-range
[7] = read-out: Solubility - estimated precipitation range, Lower-bound
[8] = read-out: Solubility - estimated precipitation range, Upper-bound

T1 sequence (Q12809 whole entry): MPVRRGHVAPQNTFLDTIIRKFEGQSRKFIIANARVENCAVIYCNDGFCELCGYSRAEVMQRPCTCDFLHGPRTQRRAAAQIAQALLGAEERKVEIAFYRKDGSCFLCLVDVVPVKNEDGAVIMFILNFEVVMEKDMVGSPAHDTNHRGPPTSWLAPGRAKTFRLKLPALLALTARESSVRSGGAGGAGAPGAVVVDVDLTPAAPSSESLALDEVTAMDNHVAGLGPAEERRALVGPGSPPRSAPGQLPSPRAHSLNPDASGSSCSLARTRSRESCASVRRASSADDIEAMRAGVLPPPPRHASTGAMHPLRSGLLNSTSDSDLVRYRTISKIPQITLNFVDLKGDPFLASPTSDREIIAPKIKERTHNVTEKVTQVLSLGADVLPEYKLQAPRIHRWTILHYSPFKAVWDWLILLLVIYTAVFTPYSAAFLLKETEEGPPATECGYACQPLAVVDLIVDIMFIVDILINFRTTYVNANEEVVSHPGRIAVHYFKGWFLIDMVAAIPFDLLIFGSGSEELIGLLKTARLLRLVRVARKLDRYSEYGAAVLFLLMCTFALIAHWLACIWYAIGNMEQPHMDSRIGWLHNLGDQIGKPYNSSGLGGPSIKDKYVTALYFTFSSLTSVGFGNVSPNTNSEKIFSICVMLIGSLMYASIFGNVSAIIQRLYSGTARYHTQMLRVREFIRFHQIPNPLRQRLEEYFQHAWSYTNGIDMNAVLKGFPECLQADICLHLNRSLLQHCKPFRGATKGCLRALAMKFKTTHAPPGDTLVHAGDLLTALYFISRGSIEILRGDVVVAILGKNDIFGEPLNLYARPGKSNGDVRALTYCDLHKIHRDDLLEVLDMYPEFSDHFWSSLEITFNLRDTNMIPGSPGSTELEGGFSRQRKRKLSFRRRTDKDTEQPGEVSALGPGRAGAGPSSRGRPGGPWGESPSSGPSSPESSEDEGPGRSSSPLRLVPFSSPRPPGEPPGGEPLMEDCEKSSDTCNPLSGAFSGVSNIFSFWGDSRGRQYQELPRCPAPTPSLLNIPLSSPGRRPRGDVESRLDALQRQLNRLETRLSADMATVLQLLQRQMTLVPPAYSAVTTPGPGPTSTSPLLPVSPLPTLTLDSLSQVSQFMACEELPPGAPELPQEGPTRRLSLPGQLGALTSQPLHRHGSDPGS

GI50 (MDA-MB-231 cells [1])	IC50 (HCC1954 cells; Homo sapiens, HCC1954, read-out: Colony formation IC50, HCC1954)	solubility [3, 6]	solubility [3, 7]	solubility [3, 8]	IC50 (MDA-MB-231 cells [4]; Homo sapiens, MDA-MB-231, read-out: Colony formation IC50, MDA-MB-231)	IC50 (SW-480 cells; Homo sapiens, SW480, read-out: Colony formation IC50, SW-480)	SMILES	Percentage of surviving colonies, BT474 (BT474 cells)	viability at 10 µM (MDA-MB-231 cells [1]; [5])	Growth inhibitory effect / effect on cell viability, longer incubation [2]	Percentage of surviving colonies, HCC1954 (HCC1954 cells; 7 days treatment at 10 μM)	Percentage of surviving colonies, MDA-MB-231 (MDA-MB-231 cells [4]; 7 days treatment at 10 μM)	Percentage of surviving colonies, SW-480 (SW-480 cells; 7 days treatment at 10 μM)	IC50 (hERG channel)	Percentage of surviving colonies, SKBR3 (SKBR3 cells)	% Viability (MDA-MB-231, 10 μM) (MDA-MB-231 cells [1]; CellTiter-Blue, 24 h incubation, 10 μM test compound, standardised to DMSO control, 10 µM)
79.3 µM	0.56 µM	3.75 µM (≈ 1.55 µg/mL)	1 µM (≈ 0.414 µg/mL)	6.5 µM (≈ 2.69 µg/mL)	0.62 µM	1.21 µM	COc1ccc(C2NC(=O)NC(C)=C2C(=O)OCc2ccc3c(c2)OCO3)c(F)c1 (centres unmarked) [Compound 5d, Benzo[d][1,3]dioxol‐5‐ylmethyl‐4‐(2‐Fluoro‐4‐Methoxyphenyl)‐6‐Methyl‐2‐Oxo‐1,2,3,4‐Tetrahydropyrimidine‐5‐Carboxylate]	80.4% ± 8.0	86.3 ± 3.8%	devoid of significant effects on cell viability	8.8% ± 4.0	11.9% ± 2.9	57.9% ± 2.0	> 25 µM	94.4% ± 2.1	–
12.6 µM	–	65 µM (≈ 26.1 µg/mL)	30 µM (≈ 12 µg/mL)	100 µM (≈ 40.1 µg/mL)	–	–	COc1ccc(COC(=O)C2=C(C)NC(=O)NC2c2ccc(Cl)cc2)cc1C (centres unmarked) [Compound 5e, 4‐Methoxy‐3‐Methylbenzyl‐4‐(4‐Chlorophenyl)‐6‐Methyl‐2‐Oxo‐1,2,3,4‐Tetrahydropyrimidine‐5‐Carboxylate]	–	< 80%	comparable to the cytotoxic drug control paclitaxel	–	–	–	> 25 µM	–	79.43 ± 8.8%

— PMC12704579, “New Anticancer 4‐Aryldihydropyrimidinone‐5‐Carboxylates Targeting Hsp90” (Chemical Biology & Drug Design, 2025)
